Experimental data: US20070049564A1 (Wyeth, priority 2005, published 2007)
In brackets after ≈: the same amount, converted by molar mass. Where two headings read alike, the source gives them in different places.

What was measured:
c. albicans GC 3066 = assay: MIC, broth microdilution
Staph. aureus Smith = assay: In vivo activity (oral, iv; ED50) against Staph. aureus Smith in mice
Procedure: Representative examples of compounds of Formula I were tested for the oral efficacy using S. aureus Smith in mice.

E. faecalis GC 2242 = assay: MIC, broth microdilution
E. faecium GC 4556 = assay: MIC, broth microdilution; conditions: Enterococcus faecium
E. coli GC 2270 = assay: MIC, broth microdilution; conditions: Escherichia coli, GC2270, pre-incubation in mouse serum
S. aureus GC 1131 = assay: MIC, broth microdilution
E. coli GC 1073 = assay: MIC, broth microdilution
S. pyogenes GC 4563 = assay: MIC, broth microdilution
S. epidermidis GC 4935 = assay: MIC, broth microdilution
S. aureus GC 6335 = assay: MIC, broth microdilution
Procedure: Antimicrobial susceptibility testing. The in vitro activities of the antibiotics are determined by the broth microdilution method as recommended by the National Committee for Clinical Laboratory Standards (NCCLS) (1). Mueller-Hinton II broth (MHBII)(BBL Cockeysville, Md.) is the medium employed in the testing procedures. Microtiter plates containing serial dilutions of each antimicrobial agent are inoculated with each organism to yield the appropriate density (10^5 CFU/ml) in a 100 μl final volume. The plates are incubated for 18-22 hours at 35° C. in ambient air.
Representative compounds were first incubated in mouse serum for an hour prior to the in vitro testing against a panel of selected gram-positive and gram-negative bacteria strains. All compounds were also pre-incubated in water for an hour prior to testing as control. Representative compounds of Formula I were incubated in human serum prior to MIC determination.

E. coli GC 2236 = assay: MIC, broth microdilution
S. aureus GC 1079 = assay: MIC, broth microdilution
P. aeruginosa GC 2214 = assay: MIC, broth microdilution
E. coli GC 2235 = assay: MIC, broth microdilution
S. pneumoniae+ GC 4465 = assay: MIC, broth microdilution
S. aureus GC 2216 = assay: MIC, broth microdilution

With `CCCCN(CC(=O)Nc1cc(N(C)C)c2c(c1O)C(=O)C1=C(O)[C@]3(O)C(=O)C(C(N)=O)=C(O)[C@@H](N(C)C)C3CC1C2)C(=O)OCc1oc(=O)oc1C` (stereo partly drawn) [Example 109, (5-methyl-2-oxo-1,3-dioxol-4-yl)methyl 2-{[(7S,10aS)-9-(aminocarbonyl)-4,7-bis(dimethylamino)-1,8,10a,11-tetrahydroxy-10,12-dioxo-5,5a,6,6a,7,10,10a,12-octahydrotetracen-2-yl]amino}-2-oxoethyl(butyl)carbamate] as the compound, how does the MIC (c. albicans GC 3066; Candida albicans, GC3066) read?
Its MIC is > 64 µg/mL.

What about the MIC (c. albicans GC 3066; pre-incubation in water) of the same compound?
Its MIC is >64 UG/ML.

And the ED50 (Staph. aureus Smith; Staphylococcus aureus, in Mus musculus, po, read-out: ED50 Staph Smith SOD)?
Its ED50 is 19.9 mg/kg.

What about the ED50 (Staph. aureus Smith; iv, read-out: ED50 Staph Smith SIV) of the same compound?
Its ED50 is 0.76 mg/kg.

What about the MIC (E. faecalis GC 2242; Enterococcus faecalis, GC2242, pre-incubation in mouse serum) of the same compound?
The MIC was 1 µg/mL (≈ 1.35 µM).

And the MIC (E. faecalis GC 2242; Enterococcus faecalis, GC2242, pre-incubation in water)?
Its MIC is 1 µg/mL (≈ 1.35 µM).

And the MIC (E. faecalis GC 2242; pre-incubation in water)?
The MIC was 2 UG/ML.

What about the MIC (E. faecium GC 4556; GC4556, pre-incubation in mouse serum) of the same compound?
The MIC was 1 µg/mL (≈ 1.35 µM).

What about the MIC (E. faecium GC 4556; GC4556, pre-incubation in water) of the same compound?
The MIC was 2 µg/mL (≈ 2.7 µM).

What about the MIC (E. coli GC 2270) of the same compound?
The MIC was 0.25 µg/mL (≈ 0.337 µM).

And the MIC (S. aureus GC 1131; Staphylococcus aureus, GC1131, pre-incubation in mouse serum)?
The MIC was 1 µg/mL (≈ 1.35 µM).

What about the MIC (S. aureus GC 1131; Staphylococcus aureus, GC1131, pre-incubation in water) of the same compound?
Its MIC is 2 µg/mL (≈ 2.7 µM).

And the MIC (S. aureus GC 1131; pre-incubation in water)?
The MIC was 4 UG/ML.

What about the MIC (E. coli GC 1073; Escherichia coli, GC1073, pre-incubation in mouse serum) of the same compound?
Its MIC is 0.5 µg/mL (≈ 0.674 µM).

And the MIC (E. coli GC 1073; pre-incubation in mouse serum)?
The MIC was 1 UG/ML.

What about the MIC (S. pyogenes GC 4563; Streptococcus pyogenes, GC4563, pre-incubation in mouse serum) of the same compound?
Its MIC is < 0.06 µg/mL.

What about the MIC (S. pyogenes GC 4563; pre-incubation in mouse serum) of the same compound?
The MIC was 0.12 UG/ML.

What about the MIC (S. epidermidis GC 4935; Staphylococcus epidermidis, GC4935, pre-incubation in mouse serum) of the same compound?
The MIC was 2 µg/mL (≈ 2.7 µM).

What about the MIC (S. epidermidis GC 4935; Staphylococcus epidermidis, GC4935, pre-incubation in water) of the same compound?
The MIC was 4 µg/mL (≈ 5.39 µM).

What about the MIC (S. epidermidis GC 4935; pre-incubation in water) of the same compound?
The MIC was 8 UG/ML.

And the MIC (S. aureus GC 6335; Staphylococcus aureus, GC6335, pre-incubation in mouse serum)?
Its MIC is 2 µg/mL (≈ 2.7 µM).

And the MIC (S. aureus GC 6335; Staphylococcus aureus, GC6335, pre-incubation in water)?
The MIC was 4 µg/mL (≈ 5.39 µM).

And the MIC (S. aureus GC 6335; pre-incubation in mouse serum)?
Its MIC is 1 UG/ML.

And the MIC (E. coli GC 2236; Escherichia coli, GC2236, pre-incubation in mouse serum)?
Its MIC is 0.5 µg/mL (≈ 0.674 µM).

What about the MIC (E. coli GC 2236; Escherichia coli, GC2236, pre-incubation in water) of the same compound?
The MIC was 1 µg/mL (≈ 1.35 µM).

What about the MIC (E. coli GC 2236; pre-incubation in water) of the same compound?
The MIC was 2 UG/ML.

What about the MIC (S. aureus GC 1079; Staphylococcus aureus, GC1079, pre-incubation in mouse serum) of the same compound?
Its MIC is 2 µg/mL (≈ 2.7 µM).

And the MIC (S. aureus GC 1079; Staphylococcus aureus, GC1079, pre-incubation in water)?
The MIC was 4 µg/mL (≈ 5.39 µM).

And the MIC (S. aureus GC 1079; pre-incubation in water)?
The MIC was 8 UG/ML.

And the MIC (P. aeruginosa GC 2214; Pseudomonas aeruginosa, GC2214, pre-incubation in mouse serum)?
The MIC was 16 µg/mL (≈ 21.6 µM).

What about the MIC (P. aeruginosa GC 2214; Pseudomonas aeruginosa, GC2214, pre-incubation in water) of the same compound?
The MIC was > 64 µg/mL.

What about the MIC (P. aeruginosa GC 2214; pre-incubation in mouse serum) of the same compound?
Its MIC is 32 UG/ML.

And the MIC (E. coli GC 2235; Escherichia coli, GC2235, pre-incubation in mouse serum)?
The MIC was 0.25 µg/mL (≈ 0.337 µM).

What about the MIC (E. coli GC 2235; Escherichia coli, GC2235, pre-incubation in water) of the same compound?
Its MIC is 0.5 µg/mL (≈ 0.674 µM).

What about the MIC (E. coli GC 2235; pre-incubation in mouse serum) of the same compound?
The MIC was 0.50 UG/ML.

What about the MIC (E. coli GC 2235; pre-incubation in water) of the same compound?
Its MIC is 1 UG/ML.

And the MIC (S. pneumoniae+ GC 4465; Streptococcus pneumoniae, pre-incubation in mouse serum)?
Its MIC is 1 µg/mL (≈ 1.35 µM).

What about the MIC (S. pneumoniae+ GC 4465; Streptococcus pneumoniae, pre-incubation in water) of the same compound?
Its MIC is 1 µg/mL (≈ 1.35 µM).

And the MIC (S. pneumoniae+ GC 4465; pre-incubation in water)?
Its MIC is 2 UG/ML.

What about the MIC (S. aureus GC 2216; Staphylococcus aureus, GC2216, pre-incubation in mouse serum) of the same compound?
Its MIC is 1 µg/mL (≈ 1.35 µM).

What about the MIC (S. aureus GC 2216; pre-incubation in mouse serum) of the same compound?
The MIC was 0.50 UG/ML.
